ChEMBL document CHEMBL1201862, “PubChem BioAssay data set” (2004)
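Results reflect a 48-hour exposure of cells in 96-well plates to compound at five concentrations. At the GI50, growth is halved.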 Calls of active or inactive are those of the source. Rule as the data show it: active = GI50 up to about 1.1 µM and inactive = higher.

Experiments:
Experiment in all cases: DTP human tumour cell line panel, 48 h
BT-549 = test system: BT-549
DLD-1 = test system: DLD-1
DMS-273 = test system: DMS-273
KM-20L2 = test system: KM-20L2
LXFL 529 = test system: LXFL 529
SNB-78 = test system: SNB-78
XF498 = test system: XF498
HOP-18 = test system: HOP-18
RXF 631 = test system: RXF 631

SMILES: CN(C)S(=O)(=O)c1ccc2c(c1)/C(=C1/Nc3ccccc3C1=O)C(=O)N2
- GI50 (BT-549): 15 µM (inactive)

SMILES: N=c1c2sc3nc4ccccc4n3c2ncn1Cc1ccccc1
- GI50 (BT-549): > 100 µM (inactive)

SMILES: CSCSSC
- GI50 (BT-549): > 100 µM (inactive)

SMILES: CC(=O)OCCn1c(Cc2ccc([N+](=O)[O-])cc2)nn(C(C)=O)c1=O
- GI50 (BT-549): > 100 µM (inactive)

SMILES: Cc1ccc(-c2nc(-c3cnccn3)n(C3OC(CO)C(O)C(O)C3O)n2)cc1 (stereo not drawn)
- GI50 (BT-549): > 100 µM (inactive)

SMILES: O=C1c2cccnc2C(=O)C2C3C=CC(C3)C12 (stereo not drawn)
- GI50 (BT-549): 11.5 µM (inactive)

SMILES: CCCCc1c(O)nc(Nc2nc3ccccc3[nH]2)[nH]c1=O
- GI50 (BT-549): > 100 µM (inactive)

SMILES: Cc1ccccc1/N=N/c1cc(C)c(/N=N/c2c(O)ccc3ccccc23)cc1C
- GI50 (BT-549): > 100 µM (inactive)

SMILES: Cc1cc(NC(=O)NC(=O)c2ccccc2NC(=O)CN(C)C)ccc1Oc1ncc(Br)cn1
- GI50 (BT-549): > 100 µM (inactive)
- GI50 (DLD-1): 8.07 µM (inactive)
- GI50 (DMS-273): 3.74 µM (inactive)
- GI50 (KM-20L2): 4.56 µM (inactive)
- GI50 (LXFL 529): 13.1 µM (inactive)
- GI50 (SNB-78): 19.2 µM (inactive)
- GI50 (XF498): 19.7 µM (inactive)

SMILES: O=C(Nc1cccc2c1C(=O)c1c(NC(=O)c3ccccc3)ccc(Nc3cccc4c3C(=O)c3ccccc3C4=O)c1C2=O)c1ccccc1
- GI50 (DLD-1): > 100 µM (inactive)
- GI50 (DMS-273): > 100 µM (inactive)
- GI50 (HOP-18): > 100 µM (inactive)
- GI50 (KM-20L2): > 100 µM (inactive)
- GI50 (LXFL 529): > 100 µM (inactive)
- GI50 (RXF 631): > 100 µM (inactive)
- GI50 (SNB-78): > 100 µM (inactive)

SMILES: O=Cc1c(C(=O)O)[nH]c(=O)[nH]c1=O
- GI50 (BT-549): > 100 µM (inactive)

SMILES: NNC(=O)Nc1nc2ccc(NN)cc2[nH]1
- GI50 (BT-549): 24 µM (inactive)

SMILES: CCCCCCCCCCC(C(=O)O)C1(C(=O)O)CCC(=O)O1 (stereo not drawn)
- GI50 (BT-549): > 100 µM (inactive)

SMILES: N#CC(NCc1cccc(CNC(C#N)c2ccccc2)c1)c1ccccc1 (stereo not drawn)
- GI50 (BT-549): 24.7 µM (inactive)

SMILES: CCN1C(=O)C(N=[N+]=[N-])(c2ccccc2)C(=O)c2ccccc21 (stereo not drawn)
- GI50 (DLD-1): > 100 µM (inactive)
- GI50 (DMS-273): > 100 µM (inactive)
- GI50 (HOP-18): > 100 µM (inactive)
- GI50 (KM-20L2): > 100 µM (inactive)
- GI50 (LXFL 529): 38.9 µM (inactive)
- GI50 (SNB-78): 98.2 µM (inactive)
- GI50 (XF498): 0.946 µM (active)

SMILES: ClCCN(CCCl)c1ccc(/C=N/Nc2ccnc3ccccc23)cc1
- GI50 (BT-549): 2 µM (inactive)

SMILES: CN1CCC(n2[nH]c(-c3ccccc3)c(Cc3ccccc3)c2=O)CC1 [BENZPIPERYLON]
- GI50 (BT-549): > 100 µM (inactive)

SMILES: Cn1c2ccccc2c2c3c(c4c5ccccc5n(C)c4c21)C(=O)N(Cc1ccccc1)C3=O
- GI50 (BT-549): > 100 µM (inactive)

SMILES: Clc1ccc(NCc2nnc(COc3ccc(OCc4nnc(CNc5ccc(Cl)cc5)o4)c(Cl)c3)o2)cc1
- GI50 (BT-549): 22.3 µM (inactive)

SMILES: CCN(CC)C1=Nc2ccccc2-n2ccnc2C1
- GI50 (BT-549): > 100 µM (inactive)

SMILES: O=C(O)c1ccc(OCc2ccccc2)c(Cl)c1
- GI50 (BT-549): > 100 µM (inactive)

SMILES: O=C1CC(c2c[nH]c3ccccc23)C(=O)N1c1ccccc1 (stereo not drawn)
- GI50 (DLD-1): > 100 µM (inactive)
- GI50 (DMS-273): > 100 µM (inactive)
- GI50 (KM-20L2): > 100 µM (inactive)
- GI50 (LXFL 529): > 100 µM (inactive)
- GI50 (SNB-78): > 100 µM (inactive)
- GI50 (XF498): > 100 µM (inactive)

SMILES: CSc1ccc(/C=C2\N=C(c3ccccc3)N(/N=C/c3cc4cc(C)ccc4nc3Cl)C2=O)cc1
- GI50 (BT-549): 22.8 µM (inactive)

SMILES: C=CCCC1CCCNC1=S (stereo not drawn)
- GI50 (BT-549): > 100 µM (inactive)

SMILES: Cn1cnc([N+](=O)[O-])c1Sc1nnc(-c2ccc(Cl)cc2)n1C
- GI50 (DLD-1): 11 µM (inactive)
- GI50 (DMS-273): 16.4 µM (inactive)
- GI50 (HOP-18): 5.25 µM (inactive)
- GI50 (LXFL 529): 10.4 µM (inactive)
- GI50 (RXF 631): 15.6 µM (inactive)
- GI50 (SNB-78): 13.2 µM (inactive)

SMILES: Cc1nc2c(c(N3CCN(C)CC3)n1)Cc1ccccc1-2
- GI50 (BT-549): 24.3 µM (inactive)

SMILES: CC1(C)CC2(C)CC1CC2(O)c1ccccc1 (stereo not drawn)
- GI50 (BT-549): > 100 µM (inactive)

SMILES: C[C@@H]1O[C@@H](O[C@H]2CC[C@]3(C=O)[C@H]4CC[C@]5(C)[C@@H](c6ccc(=O)oc6)CC[C@]5(O)[C@@H]4CC[C@]3(O)C2)[C@H](O)[C@H](O)[C@H]1O[C@@H]1O[C@H](CO)[C@@H](O)[C@H](O)[C@H]1O [HELLEBRIN]
- GI50 (BT-549): 0.00509 µM (active)
- GI50 (DMS-273): 0.00775 µM (active)
- GI50 (HOP-18): 0.00518 µM (active)
- GI50 (KM-20L2): 0.0187 µM (active)
- GI50 (SNB-78): 0.0375 µM (active)
- GI50 (XF498): 0.0375 µM (active)

SMILES: NC12CC3CC(C1)CC(C(=O)O)(C3)C2
- GI50 (DLD-1): > 100 µM (inactive)
- GI50 (DMS-273): > 100 µM (inactive)
- GI50 (HOP-18): > 100 µM (inactive)
- GI50 (KM-20L2): > 100 µM (inactive)
- GI50 (LXFL 529): > 100 µM (inactive)
- GI50 (SNB-78): > 100 µM (inactive)
- GI50 (XF498): > 100 µM (inactive)

SMILES: CC(=O)NC1C(OCc2ccccc2)OC(CO)C(O)C1OCC(=O)N1CCCC1C(=O)N[C@@H](CCC(=O)NCCCCNc1c2ccccc2nc2cccc([N+](=O)[O-])c12)C(N)=O (stereo partly drawn)
- GI50 (BT-549): 17.9 µM (inactive)

SMILES: COc1cc([C@@H]2c3cc4c(cc3[C@@H](OC(=O)c3ccc(N)cc3)C3COC(=O)[C@@H]32)OCO4)cc(OC)c1O (stereo partly drawn)
- GI50 (DLD-1): 5.6 µM (inactive)
- GI50 (DMS-273): 3.43 µM (inactive)
- GI50 (HOP-18): > 95.1 µM (inactive)
- GI50 (KM-20L2): 1.88 µM (inactive)
- GI50 (LXFL 529): 14.8 µM (inactive)
- GI50 (RXF 631): 9.1 µM (inactive)
- GI50 (SNB-78): 15.2 µM (inactive)

SMILES: C=CCNC(=O)N1CC(C)C(=O)Nc2ccccc21 (stereo not drawn)
- GI50 (BT-549): > 100 µM (inactive)

SMILES: O=C1CCC2(CCC(=O)NC2=O)C(=O)N1
- GI50 (DMS-273): > 100 µM (inactive)
- GI50 (KM-20L2): > 100 µM (inactive)
- GI50 (LXFL 529): > 100 µM (inactive)
- GI50 (XF498): > 100 µM (inactive)

SMILES: CO/N=C1\CC(C)N2C(=O)C(C(C)C)NC(=O)C(NC(=O)c3c4nc5c(C(=O)NC6C(=O)NC(C(C)C)C(=O)N7C(C)CC(O)C7C(=O)N(C)CC(=O)N(C)C(C(C)C)C(=O)OC6C)ccc(C)c5oc-4c(C)c(=O)c3N)C(CO)OC(=O)C(C)N(C)C(=O)CN(C)C(=O)C12 (stereo not drawn)
- GI50 (BT-549): 2.45 µM (inactive)

SMILES: Oc1ccc(Cn2c(-c3ccc(O)c(O)c3)nc3ccccc32)cc1O
- GI50 (BT-549): 10.4 µM (inactive)
